Laboratory results: US12194048B2, “Use of pyrrolopyridine derivatives for preventing or treating inflammatory diseases” (VORONOI CO., LTD., priority 2020, dated 2025)

Tests used:
[1] = test system: IMQ-induced psoriasis-like skin inflammation model; assay: Oral treatment in imiquimod (IMQ)-induced psoriasis-like skin inflammation; assay type: in vivo, BALB/c mice
Procedure: The positive control, methotrexate at 2 mg/kg and tofacitinib at 5 mg/kg were administered by oral gavage twice (BID) daily during the same study period.
Fifteen (15) mg Imiquimod (IMQ) cream (5%) (Aldara; 3M Pharmaceuticals) was topically (TOP) administered once daily (QD) on the right ear one hour after treatment from Day 1 to Day 9 for 9 consecutive days, translating to a daily dose of 0.75 mg of the active compound. Ear swelling was measured on Day 0 and thereafter 30 min before dosing on Days 2, 4, 6 and 8. On Day 10, ear swelling was measured 24 hours after the last dosing.

[2] = test system: NF-κb signaling pathway; assay: Intranuclear movement of p50 and p65 in LPS-stimulated THP-1 cells; assay type: cell-based; settings: LPS-treated THP-1 cells; FIG. 1b
[3] = Metabolic stability (MS) evaluation; assay type: in vitro ADME
[4] = Caco-2 permeability; assay type: in vitro ADME; settings: human
From the text: Caco-2 permeability observes the cell membrane permeability of a drug, and can be considered an index associated with drug absorption and excretion.

[5] = Metabolic stability (MS) evaluation; assay type: in vitro ADME; remark: listed apart in the source
[6] = test system: house dust mite-induced atopic dermatitis model; assay: House dust mite-induced atopic dermatitis model; assay type: in vivo, NC/Nga mice
Procedure: The backs and ears of NC/Nga mice aged 8 weeks were shaved, and 0.1 g house dust mite cream was applied once every three days for a total of seven times to induce atopic dermatitis. For the negative control group where dermatitis was not induced, a cream not including house dust mites was applied. […] To the comparative control group, the JAK1 inhibitor upadacitinib was orally administered at 6 mg/kg twice daily for 14 days.
After inducing atopic dermatitis using house dust mite cream, symptoms as well as the state of the skin of the cars and backs were scored twice weekly starting from the initial date of administration; the measurements were added and the means are shown in FIG. 9. Furthermore, on the date of termination of the experiment, skin tissue and serum were collected to observe the level of expression of inflammatory cytokines in the tissue and the level of expression of IgE in serum using ELISA analysis; the results are shown in FIG. 10.

[7] = molecular target: CYP 2D6 (Homo sapiens, UniProt P10635); assay: CYP inhibition assay (luminescence); assay type: in vitro ADME
From the text: (§1) DDI (Drug Interaction) can be observed in a CYP inhibition assay. A luminescence assay was used to measure and evaluate inhibition activity against 1A2, 2C9, 2C19, 2D6 and 3A4, which are important Phase 1 drug metabolism CYP450 enzymes involved in drug metabolism.

[8] = molecular target: CYP 2C19 (Homo sapiens, UniProt P33261); assay: CYP inhibition assay (luminescence); assay type: in vitro ADME
From the text: as §1

[9] = molecular target: CYP 2C9 (Homo sapiens, UniProt P11712); assay: CYP inhibition assay (luminescence); assay type: in vitro ADME
From the text: as §1

[10] = molecular target: CYP 3A4 (Homo sapiens, UniProt P08684); assay: CYP inhibition assay (luminescence); assay type: in vitro ADME
Sequence of CYP 3A4 (P08684 whole entry): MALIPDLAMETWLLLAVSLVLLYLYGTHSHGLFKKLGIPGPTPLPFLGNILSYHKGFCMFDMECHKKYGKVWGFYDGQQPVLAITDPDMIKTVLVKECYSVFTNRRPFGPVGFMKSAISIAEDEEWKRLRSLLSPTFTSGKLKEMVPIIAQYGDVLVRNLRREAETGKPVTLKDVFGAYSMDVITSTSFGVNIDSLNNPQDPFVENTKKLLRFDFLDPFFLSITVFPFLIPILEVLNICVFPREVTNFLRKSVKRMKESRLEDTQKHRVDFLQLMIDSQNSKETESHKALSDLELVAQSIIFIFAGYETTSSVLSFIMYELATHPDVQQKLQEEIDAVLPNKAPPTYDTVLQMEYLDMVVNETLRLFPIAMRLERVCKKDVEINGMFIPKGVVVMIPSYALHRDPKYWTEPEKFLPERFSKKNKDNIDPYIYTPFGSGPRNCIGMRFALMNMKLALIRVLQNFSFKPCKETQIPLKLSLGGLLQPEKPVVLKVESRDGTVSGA
From the text: as §1

[11] = molecular target: CYP 1A2 (Homo sapiens, UniProt P05177); assay: CYP inhibition assay (luminescence); assay type: in vitro ADME
Sequence of CYP 1A2 (P05177 whole entry): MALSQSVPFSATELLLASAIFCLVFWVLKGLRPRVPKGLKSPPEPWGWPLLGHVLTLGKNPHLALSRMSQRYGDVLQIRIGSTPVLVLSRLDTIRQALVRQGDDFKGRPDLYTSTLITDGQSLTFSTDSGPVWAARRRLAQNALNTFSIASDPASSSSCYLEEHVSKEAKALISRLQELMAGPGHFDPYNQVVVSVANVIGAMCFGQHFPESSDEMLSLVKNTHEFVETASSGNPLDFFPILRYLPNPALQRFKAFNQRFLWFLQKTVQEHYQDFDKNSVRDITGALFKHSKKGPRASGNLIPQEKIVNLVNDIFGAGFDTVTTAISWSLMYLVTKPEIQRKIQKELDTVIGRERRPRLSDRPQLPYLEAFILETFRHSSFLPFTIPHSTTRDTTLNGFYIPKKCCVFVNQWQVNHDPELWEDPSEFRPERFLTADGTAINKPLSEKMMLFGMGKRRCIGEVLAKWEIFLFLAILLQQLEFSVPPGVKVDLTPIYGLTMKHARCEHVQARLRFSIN
From the text: as §1

[12] = test system: THP-1 cells; assay: Pro-inflammatory cytokine expression in LPS-stimulated THP-1 cells; assay type: cell-based; settings: pre-treated 1 hour, then LPS 0.5 μg/ml 24 hours; FIG. 1a
[13] = molecular target: T1, ABL1-nonphosphorylated (Homo sapiens, UniProt P00519); assay: scanMAX Kinase analysis panel (DiscoverX); assay type: binding; settings: drug 1 μM in DMSO; from % control
T1 construct: purchased DiscoverX scanMAX Kinase analysis panel
T1 sequence (P00519 whole entry): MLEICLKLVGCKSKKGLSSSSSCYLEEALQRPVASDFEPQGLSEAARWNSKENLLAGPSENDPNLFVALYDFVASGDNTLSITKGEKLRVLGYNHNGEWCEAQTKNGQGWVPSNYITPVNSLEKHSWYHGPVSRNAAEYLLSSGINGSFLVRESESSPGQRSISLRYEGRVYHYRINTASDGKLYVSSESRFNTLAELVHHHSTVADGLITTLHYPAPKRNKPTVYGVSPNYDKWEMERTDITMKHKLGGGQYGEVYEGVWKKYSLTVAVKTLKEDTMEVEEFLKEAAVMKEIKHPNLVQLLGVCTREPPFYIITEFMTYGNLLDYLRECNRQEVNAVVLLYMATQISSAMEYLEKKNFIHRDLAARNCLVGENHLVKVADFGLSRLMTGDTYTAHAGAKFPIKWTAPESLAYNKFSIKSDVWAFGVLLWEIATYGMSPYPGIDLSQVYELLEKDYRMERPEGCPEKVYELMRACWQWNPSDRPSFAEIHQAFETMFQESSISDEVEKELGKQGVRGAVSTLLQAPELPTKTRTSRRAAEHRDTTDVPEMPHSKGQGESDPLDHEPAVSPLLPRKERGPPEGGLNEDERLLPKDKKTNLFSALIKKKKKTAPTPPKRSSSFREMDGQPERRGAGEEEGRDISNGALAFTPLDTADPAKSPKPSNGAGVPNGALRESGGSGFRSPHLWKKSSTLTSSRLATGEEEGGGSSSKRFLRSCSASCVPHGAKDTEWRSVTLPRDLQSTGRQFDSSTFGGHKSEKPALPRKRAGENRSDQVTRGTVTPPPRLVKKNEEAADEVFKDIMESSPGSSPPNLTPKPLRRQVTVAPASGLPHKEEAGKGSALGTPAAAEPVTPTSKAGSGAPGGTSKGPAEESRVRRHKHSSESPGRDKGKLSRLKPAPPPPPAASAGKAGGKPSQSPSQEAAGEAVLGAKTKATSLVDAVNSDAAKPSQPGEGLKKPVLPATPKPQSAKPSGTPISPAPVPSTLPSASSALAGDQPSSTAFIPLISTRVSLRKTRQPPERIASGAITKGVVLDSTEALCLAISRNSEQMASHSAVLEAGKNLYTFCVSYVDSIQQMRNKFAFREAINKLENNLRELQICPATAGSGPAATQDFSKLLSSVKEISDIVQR
From the text: (§2) [(Example compound−positive control)/(negative control−positive control)×100]

[14] = molecular target: T2, LRRK2(G2019S) (Homo sapiens, UniProt Q5S007, G2019S); assay: scanMAX Kinase analysis panel (DiscoverX); assay type: binding; settings: drug 1 μM in DMSO; from % control
T2 construct: purchased DiscoverX scanMAX Kinase analysis panel
From the text: as §2

[15] = molecular target: T3, LRRK2 (Homo sapiens, UniProt Q5S007); assay: scanMAX Kinase analysis panel (DiscoverX); assay type: binding; settings: drug 1 μM in DMSO; from % control
T3 construct: purchased DiscoverX
From the text: as §2

[16] = molecular target: T4, INSR (Homo sapiens, UniProt P06213); assay: scanMAX Kinase analysis panel (DiscoverX); assay type: binding; settings: drug 1 μM in DMSO; from % control
T4 construct: purchased DiscoverX
From the text: as §2

[17] = molecular target: T5, PHKG1 (Homo sapiens, UniProt Q16816); assay: scanMAX Kinase analysis panel (DiscoverX); assay type: binding; settings: drug 1 μM in DMSO; from % control
T5 construct: purchased DiscoverX scanMAX Kinase analysis panel
T5 sequence (Q16816 whole entry): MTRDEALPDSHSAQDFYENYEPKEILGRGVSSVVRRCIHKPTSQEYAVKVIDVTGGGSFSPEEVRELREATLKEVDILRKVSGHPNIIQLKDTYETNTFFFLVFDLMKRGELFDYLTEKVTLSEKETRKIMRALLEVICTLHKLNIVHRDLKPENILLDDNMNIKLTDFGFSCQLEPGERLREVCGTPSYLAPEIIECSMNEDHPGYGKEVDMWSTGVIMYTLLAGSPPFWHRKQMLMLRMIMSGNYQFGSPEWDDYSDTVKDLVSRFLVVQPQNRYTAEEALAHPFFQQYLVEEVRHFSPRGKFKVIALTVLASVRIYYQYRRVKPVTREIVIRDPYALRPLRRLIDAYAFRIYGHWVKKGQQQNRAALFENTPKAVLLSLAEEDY
From the text: as §2

[18] = molecular target: T6, ALK(C1156Y) (Homo sapiens, UniProt Q9UM73, C1156Y); assay: scanMAX Kinase analysis panel (DiscoverX); assay type: binding; settings: drug 1 μM in DMSO; from % control
T6 construct: purchased DiscoverX scanMAX Kinase analysis panel
T6 sequence (Q9UM73 19-1620 C1156Y): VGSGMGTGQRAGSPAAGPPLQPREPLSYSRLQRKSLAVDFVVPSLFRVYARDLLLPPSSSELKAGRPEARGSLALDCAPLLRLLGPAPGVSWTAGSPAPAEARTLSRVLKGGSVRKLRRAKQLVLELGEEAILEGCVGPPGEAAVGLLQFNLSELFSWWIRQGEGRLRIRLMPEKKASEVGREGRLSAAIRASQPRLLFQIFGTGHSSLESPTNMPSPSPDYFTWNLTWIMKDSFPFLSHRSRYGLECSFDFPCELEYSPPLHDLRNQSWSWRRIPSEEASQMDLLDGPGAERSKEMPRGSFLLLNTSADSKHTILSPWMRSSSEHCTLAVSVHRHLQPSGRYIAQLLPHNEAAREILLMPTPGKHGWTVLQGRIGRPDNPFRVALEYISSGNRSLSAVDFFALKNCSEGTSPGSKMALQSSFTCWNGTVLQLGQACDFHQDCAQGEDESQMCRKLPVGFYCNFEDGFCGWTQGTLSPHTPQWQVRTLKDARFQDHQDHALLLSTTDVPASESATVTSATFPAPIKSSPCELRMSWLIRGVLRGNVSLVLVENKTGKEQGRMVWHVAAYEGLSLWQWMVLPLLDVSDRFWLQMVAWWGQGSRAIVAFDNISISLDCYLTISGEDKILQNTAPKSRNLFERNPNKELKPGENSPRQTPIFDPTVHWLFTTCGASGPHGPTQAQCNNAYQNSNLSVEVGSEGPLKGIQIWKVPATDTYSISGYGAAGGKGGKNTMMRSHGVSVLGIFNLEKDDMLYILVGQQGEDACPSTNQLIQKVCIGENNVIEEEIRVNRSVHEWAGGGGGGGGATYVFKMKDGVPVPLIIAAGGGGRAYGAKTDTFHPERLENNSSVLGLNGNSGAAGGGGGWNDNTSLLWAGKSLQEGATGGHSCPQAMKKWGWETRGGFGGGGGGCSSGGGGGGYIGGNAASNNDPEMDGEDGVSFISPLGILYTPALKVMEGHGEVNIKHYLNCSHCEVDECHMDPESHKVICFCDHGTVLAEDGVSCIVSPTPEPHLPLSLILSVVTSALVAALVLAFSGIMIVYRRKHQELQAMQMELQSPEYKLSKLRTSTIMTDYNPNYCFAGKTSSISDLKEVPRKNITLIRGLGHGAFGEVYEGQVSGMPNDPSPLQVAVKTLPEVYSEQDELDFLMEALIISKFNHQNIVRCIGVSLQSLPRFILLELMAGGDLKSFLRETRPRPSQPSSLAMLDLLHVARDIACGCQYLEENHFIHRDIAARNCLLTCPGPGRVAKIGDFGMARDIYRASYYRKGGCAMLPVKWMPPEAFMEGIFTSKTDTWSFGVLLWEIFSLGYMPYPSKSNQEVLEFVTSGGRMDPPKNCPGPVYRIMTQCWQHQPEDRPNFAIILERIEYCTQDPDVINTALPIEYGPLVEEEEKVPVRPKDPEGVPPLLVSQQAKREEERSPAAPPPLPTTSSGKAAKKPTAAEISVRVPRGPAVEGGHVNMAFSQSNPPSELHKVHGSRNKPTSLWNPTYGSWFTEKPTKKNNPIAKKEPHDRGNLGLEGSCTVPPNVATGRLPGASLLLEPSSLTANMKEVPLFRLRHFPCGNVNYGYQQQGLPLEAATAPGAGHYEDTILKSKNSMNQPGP
From the text: as §2

[19] = molecular target: T7, ALK(L1196M) (Homo sapiens, UniProt Q9UM73, L1196M); assay: scanMAX Kinase analysis panel (DiscoverX); assay type: binding; settings: drug 1 μM in DMSO; from % control
T7 construct: purchased DiscoverX scanMAX Kinase analysis panel
From the text: as §2

[20] = molecular target: T8, GAK (Homo sapiens, UniProt O14976); assay: scanMAX Kinase analysis panel (DiscoverX); assay type: binding; settings: drug 1 μM in DMSO; from % control
T8 construct: purchased DiscoverX scanMAX Kinase analysis panel
From the text: as §2

[21] = molecular target: T9, HUNK (Homo sapiens, UniProt P57058); assay: scanMAX Kinase analysis panel (DiscoverX); assay type: binding; settings: drug 1 μM in DMSO; from % control
T9 construct: purchased DiscoverX
From the text: as §2

[22] = molecular target: T10, PHKG2 (Homo sapiens, UniProt P15735); assay: scanMAX Kinase analysis panel (DiscoverX); assay type: binding; settings: drug 1 μM in DMSO; from % control
T10 construct: purchased DiscoverX scanMAX Kinase analysis panel
From the text: as §2

[23] = molecular target: T11, JNK3 (Homo sapiens, UniProt P53779); assay: scanMAX Kinase analysis panel (DiscoverX); assay type: binding; settings: drug 1 μM in DMSO; from % control
T11 construct: purchased DiscoverX
From the text: as §2

[24] = molecular target: T12, MAPKAPK2 (Homo sapiens, UniProt P49137); assay: scanMAX Kinase analysis panel (DiscoverX); assay type: binding; settings: drug 1 μM in DMSO; from % control
T12 construct: purchased DiscoverX
From the text: as §2

[25] = molecular target: T13, JNK1 (Homo sapiens, UniProt P45983); assay: scanMAX Kinase analysis panel (DiscoverX); assay type: binding; settings: drug 1 μM in DMSO; from % control
T13 construct: purchased DiscoverX scanMAX Kinase analysis panel
T13 sequence (P45983 whole entry): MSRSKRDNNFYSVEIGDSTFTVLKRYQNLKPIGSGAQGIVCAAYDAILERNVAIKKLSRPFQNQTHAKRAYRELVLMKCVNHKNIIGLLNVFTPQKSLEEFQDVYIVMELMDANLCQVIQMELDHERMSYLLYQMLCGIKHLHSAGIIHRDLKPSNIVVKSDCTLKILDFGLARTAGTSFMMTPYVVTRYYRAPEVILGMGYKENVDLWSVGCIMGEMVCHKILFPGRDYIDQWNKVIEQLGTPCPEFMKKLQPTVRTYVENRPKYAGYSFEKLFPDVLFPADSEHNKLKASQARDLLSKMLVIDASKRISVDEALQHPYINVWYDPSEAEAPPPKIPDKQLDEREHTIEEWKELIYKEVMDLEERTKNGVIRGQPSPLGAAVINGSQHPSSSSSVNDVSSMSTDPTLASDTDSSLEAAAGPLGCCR
From the text: as §2

[26] = molecular target: T14, CAMK2D (Homo sapiens, UniProt Q13557); assay: scanMAX Kinase analysis panel (DiscoverX); assay type: binding; settings: drug 1 μM in DMSO; from % control
T14 construct: purchased DiscoverX scanMAX Kinase analysis panel
T14 sequence (Q13557 whole entry): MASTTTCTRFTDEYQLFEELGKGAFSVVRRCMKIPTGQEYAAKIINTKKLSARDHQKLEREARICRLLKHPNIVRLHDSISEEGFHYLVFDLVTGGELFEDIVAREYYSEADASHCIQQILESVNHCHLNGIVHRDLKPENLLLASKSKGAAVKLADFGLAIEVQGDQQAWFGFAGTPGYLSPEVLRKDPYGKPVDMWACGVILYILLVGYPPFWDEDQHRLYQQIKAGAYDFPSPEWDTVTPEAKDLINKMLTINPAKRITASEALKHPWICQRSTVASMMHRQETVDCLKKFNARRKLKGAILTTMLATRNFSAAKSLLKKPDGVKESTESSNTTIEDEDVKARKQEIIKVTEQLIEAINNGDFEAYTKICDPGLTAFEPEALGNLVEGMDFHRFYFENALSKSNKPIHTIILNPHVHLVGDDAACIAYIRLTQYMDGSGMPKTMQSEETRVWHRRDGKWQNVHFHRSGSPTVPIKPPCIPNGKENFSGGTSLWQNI
From the text: as §2

[27] = molecular target: T15, CSNK1A1 (Homo sapiens, UniProt P48729); assay: scanMAX Kinase analysis panel (DiscoverX); assay type: binding; settings: drug 1 μM in DMSO; from % control
T15 construct: purchased DiscoverX scanMAX Kinase analysis panel
From the text: as §2

- MS (1 μM) (% remaining during 30 min) Dog [3]: 96%
- Papp [4]: 0.201 ×10⁻⁶ cm/s
- MS (1 μM) (% remaining during 30 min) Rat [5]: 20%
- CYP (10 μM) (% of control activity 2D6) [7]: 92%
- CYP (10 μM) (% of control activity 2C19) [8]: 84%
- CYP (10 μM) (% of control activity 2C9) [9]: 74%
- CYP 3A4 enzyme inhibition activity (in words) [10]: almost no enzyme inhibition activity
- CYP (10 μM) (% of control activity 3A4) ([10]; 10 μM): 72%
- CYP (10 μM) (% of control activity 1A2) [11]: 86%
- inhibition at 1 µM [13]: 40 to 59%
- inhibition at 1 µM [14]: ≥ 59%
- inhibition at 1 µM [15]: 40 to 59%
- inhibition at 1 µM [16]: 40 to 59%
- inhibition at 1 µM [17]: ≥ 59%
- inhibition at 1 µM [18]: ≥ 59%
- inhibition at 1 µM [19]: ≥ 59%
- inhibition at 1 µM [20]: ≥ 59%
- inhibition at 1 µM [21]: 40 to 59%
- inhibition at 1 µM [22]: ≥ 59%
- inhibition at 1 µM [23]: 40 to 59%
- inhibition at 1 µM [24]: 40 to 59%
- inhibition at 1 µM [25]: ≥ 59%
- inhibition at 1 µM [26]: 40 to 59%
- inhibition at 1 µM [27]: 40 to 59%
Structure (SMILES): CCNc1cc(Nc2ccc(C(=O)N3CCC(N4CCOCC4)CC3)cc2OC)nc2[nH]cc(C(F)(F)F)c12 [Compound 1, (4-((4-(ethylamino)-3-(trifluoromethyl)-1H-pyrrolo[2,3-b]pyridine-6-yl)amino)-3-methoxyphenyl)(4-morpholinopiperidine-1-yl)methanone]
- protective effects on IMQ-induced psoriasis-like inflammation (ear swelling) ([1]; 45 and 60 mg/kg PO BID×9 days): significantly (p<0.05) protective effects
- IMQ-induced ear swelling ([1]; 45 and 60 mg/kg oral gavage BID 9 days, Day 8 to Day 10, vs vehicle group): statistically (p<0.05) significant inhibition
- intranuclear movement of p50 [2]: effectively inhibited
- intranuclear movement of p65 [2]: effectively inhibited
- dermatitis on the back and ears ([6]; 10, 20 and 30 mpk orally twice daily for 14 days, FIG. 9): alleviated in a concentration-dependent manner
- IgE expression in serum ([6]; 10, 20 and 30 mpk, ELISA, FIG. 10): concentration-dependent reduction
- alleviating dermatitis ([6]; 30 mpk orally twice daily for 14 days): most effective
- IgE expression in serum ([6]; 30 mpk, ELISA, FIG. 10): statistically significant reduction
- inflammatory cytokine expression in the back tissue ([6]; 30 mpk, against the control group, ELISA, FIG. 10): statistically significant reduction
- alleviating atopic dermatitis, compared with upadacitinib control group ([6]; upadacitinib 6 mg/kg orally twice daily for 14 days): more effective
- expression of IL-6 [12]: effectively inhibited
- expression of TNF-α [12]: effectively inhibited
